Measurements taken from BindingDB's records for doi:10.1016/s0960-894x(02)00682-0 (Bristol-Myers Squibb Pharmaceutical Research Institute, 2002).
Peptide text beside a SMILES is read from it. * marks the point of attachment. X11 = CCCCCC[C@H](N*)B1O[C@@H]2C[C@@H]3C[C@@H](C3(C)C)[C@]2(C)O1; X14 = CCCC[C@H](N*)B1O[C@@H]2C[C@@H]3C[C@@H](C3(C)C)[C@]2(C)O1

Target: T1, Chymotrypsin-C (Homo sapiens, UniProt Q99895)
T1 sequence (Q99895 whole entry): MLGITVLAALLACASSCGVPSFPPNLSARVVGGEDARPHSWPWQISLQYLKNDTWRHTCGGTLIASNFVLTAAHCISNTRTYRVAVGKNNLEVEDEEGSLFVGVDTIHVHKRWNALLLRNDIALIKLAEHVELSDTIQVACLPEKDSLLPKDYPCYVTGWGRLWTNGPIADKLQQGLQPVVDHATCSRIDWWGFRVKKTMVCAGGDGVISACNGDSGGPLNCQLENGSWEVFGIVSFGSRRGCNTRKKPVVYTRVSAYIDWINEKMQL
Experiment: ChEBML_197808
Description: (§1) Inhibitory concentration against Human pancreatic Serine protease chymotrypsin
`CC(C)[C@H](NC(=O)[C@H](CCC(=O)O)NC(=O)[C@@H](N)CC(=O)O)C(=O)N[C@H](C(=O)N1CCC[C@H]1C(=O)N[C@@H](CCc1ccc(-c2ccccc2)cc1)B1O[C@@H]2C[C@@H]3C[C@@H](C3(C)C)[C@]2(C)O1)C(C)C` [Peptide Boronic Acid analogue] gave an IC50 of 48 µM.

Target: not listed separately
Experiment: Inhibitory concentration against Human pancreatic Serine protease chymotrypsin
With `CC(C)[C@H](NC(=O)[C@H](CCC(=O)O)NC(=O)[C@@H](N)CC(=O)O)C(=O)N[C@H](C(=O)N1CCC[C@H]1C(=O)N[C@@H](CCc1ccc(C(C)(C)C)cc1)B1O[C@@H]2C[C@@H]3C[C@@H](C3(C)C)[C@]2(C)O1)C(C)C` [Peptide Boronic Acid analogue] the IC50 was > 60 µM. For `CC(C)[C@H](NC(=O)[C@H](CCC(=O)O)NC(=O)[C@@H](N)CC(=O)O)C(=O)N[C@H](C(=O)N1CCC[C@H]1C(=O)N[C@@H](CCc1ccc(C2CCCCC2)cc1)B1O[C@@H]2C[C@@H]3C[C@@H](C3(C)C)[C@]2(C)O1)C(C)C` [Peptide Boronic Acid analogue], the IC50 was > 60 µM. With `CC(C)[C@H](NC(=O)[C@H](CCC(=O)O)NC(=O)[C@@H](N)CC(=O)O)C(=O)N[C@H](C(=O)N1CCC[C@H]1C(=O)N[C@@H](CCc1ccc(Oc2ccccc2)cc1)B1O[C@@H]2C[C@@H]3C[C@@H](C3(C)C)[C@]2(C)O1)C(C)C` [Peptide Boronic Acid analogue] the IC50 was > 60 µM. With `CC(C)c1ccc(CC[C@H](NC(=O)[C@@H]2CCCN2C(=O)[C@@H](NC(=O)[C@@H](NC(=O)[C@H](CCC(=O)O)NC(=O)[C@@H](N)CC(=O)O)C(C)C)C(C)C)B2O[C@@H]3C[C@@H]4C[C@@H](C4(C)C)[C@]3(C)O2)cc1` [Peptide Boronic Acid analogue] the IC50 was > 60 µM. In the case of `COc1ccc(CC[C@H](NC(=O)[C@@H]2CCCN2C(=O)[C@@H](NC(=O)[C@@H](NC(=O)[C@H](CCC(=O)O)NC(=O)[C@@H](N)CC(=O)O)C(C)C)C(C)C)B2O[C@@H]3C[C@@H]4C[C@@H](C4(C)C)[C@]3(C)O2)cc1` [Peptide Boronic Acid analogue], the IC50 is reported as 20 µM.

Target: T1, Chymotrypsin-C
Experiment: as §1
In the case of `CC(C)[C@H](NC(=O)[C@H](CCC(=O)O)NC(=O)[C@@H](N)CC(=O)O)C(=O)N[C@H](C(=O)N1CCC[C@H]1C(=O)N[C@@H](CCCCc1ccccc1)B1O[C@@H]2C[C@@H]3C[C@@H](C3(C)C)[C@]2(C)O1)C(C)C` [Peptide Boronic Acid analogue], the IC50 is reported as 1.9 µM. `CC(C)[C@H](NC(=O)[C@H](CCC(=O)O)NC(=O)[C@@H](N)CC(=O)O)C(=O)N[C@H](C(=O)N1CCC[C@H]1C(=O)N[C@@H](CCc1ccc(C(F)(F)F)cc1)B1O[C@@H]2C[C@@H]3C[C@@H](C3(C)C)[C@]2(C)O1)C(C)C` [Peptide Boronic Acid analogue] gave an IC50 of 16 µM. For `CC[C@H](NC(=O)[C@@H]1CCCN1C(=O)[C@@H](NC(=O)[C@@H](NC(=O)[C@H](CCC(=O)O)NC(=O)[C@@H](N)CC(=O)O)C(C)C)C(C)C)B1O[C@@H]2C[C@@H]3C[C@@H](C3(C)C)[C@]2(C)O1` [Peptide Boronic Acid analogue], the IC50 was > 60 µM. `Cc1ccc(CC[C@H](NC(=O)[C@@H]2CCCN2C(=O)[C@@H](NC(=O)[C@@H](NC(=O)[C@H](CCC(=O)O)NC(=O)[C@@H](N)CC(=O)O)C(C)C)C(C)C)B2O[C@@H]3C[C@@H]4C[C@@H](C4(C)C)[C@]3(C)O2)cc1` [Peptide Boronic Acid analogue] showed an IC50 of 3.7 µM. `CCCCCC[C@H](NC(=O)[C@@H]1CCCN1C(=O)[C@@H](NC(=O)[C@@H](NC(=O)[C@H](CCC(=O)O)NC(=O)[C@@H](N)CC(=O)O)C(C)C)C(C)C)B1O[C@@H]2C[C@@H]3C[C@@H](C3(C)C)[C@]2(C)O1` [Peptide Boronic Acid analogue] (H-DEVVP-X11) gave an IC50 of 0.42 µM. For `CCCC[C@H](NC(=O)[C@@H]1CCCN1C(=O)[C@@H](NC(=O)[C@@H](NC(=O)[C@H](CCC(=O)O)NC(=O)[C@@H](N)CC(=O)O)C(C)C)C(C)C)B1O[C@@H]2C[C@@H]3C[C@@H](C3(C)C)[C@]2(C)O1` [Peptide Boronic Acid analogue] (H-DEVVP-X14), the IC50 was 2.1 µM.
